Results: patent publication US20070208073A1, “Compositions and methods for treating cardiovascular, cerebrovascular and other vascular disease patients” (priority 2006, published 2007)

Assay: Clinical treatment of high risk vascular patients: cholesterol panel (LDL, HDL, triglycerides)
Type: in vivo
Settings: for LDL lowering effects on adding adjunct: adjunct added to statin composition, Niacin 500 mg, ezetimibe 10 mg
Procedure: The protocol of the instant invention was developed for patients that are high risk for a life and/or limb threatening vascular event (MI, CVA, limb/part of limb loss, Aortic dissection/rupture, Renal infarction, etc.) such as DM type I and/or II, CAD, PVD, post MI, post CVA, Hypertriglyceridemia, Hypercholesterolemia, AAA, etc.
It is generally acknowledged that a goal for a DM/CAD patient is to have a LDL cholesterol level less than 70 mg/dL (National Cholesterol Education Program Interim Report Guidelines).
Generally, a patient should start with a low dose of one statin, the dose should then be titrated up to half a maximal dose (titrate means to start a patient at the lowest dose and increase the dose monthly based on having a patient that is less than 3× normal levels for the LFTs, the LDL cholesterol level is not to goal, and there is no positive change in signs, symptoms or studies to evaluate vascular function per disease state). At that point, the patient should be evaluated to see if the LDL cholesterol level is near the goal. If the patient is near the goal, adjuncts should be given to see if the LDL cholesterol level can be further lowered. If the patient is not near the LDL cholesterol goal after titration up to half a maximal dose, the dose of the initial statin should be reduced and a low dose second statin from the other group should be added to the regimen (i.e., if the initial statin is a hydrophilic statin, the second statin should be a lipophilic statin; and vice versa). The second statin level should be titrated up to a half maximal dose if upon taking the statin from the other group (i.e., the second statin), the LDL cholesterol level goal is still not attained. If one is near or at the LDL cholesterol level goal before or after titration of the second statin, the adjuncts can be added to further reduce the LDL cholesterol level.

| SMILES | LDL lowering effects on adding adjunct | HDL up (niacin 500 mg a day with the composition of statins) | boost to the HDL levels (niacin 500 mg to 750 mg a day, adult, with two-statin composition) [%] |
| --- | --- | --- | --- |
| O=C1[C@H](CC[C@H](O)c2ccc(F)cc2)[C@@H](c2ccc(O)cc2)N1c1ccc(F)cc1 [ezetimibe] | amplified |  |  |
| O=C(O)c1cccnc1 [niacin] | amplified | at least 10% | ≥ 10 |
